Measurements published in patent US20250034202A1 (The General Hospital Corporation, priority 2021, published 2025).
Values joined by “and” are separate entries in the source; they are usually repeats but may differ in a detail not shown here. Identical values can stand only once. Like-named read-outs stand apart in the source and are kept apart here.

Assays:
BRD4 [1] = target: T1, BRD4 (Homo sapiens, UniProt O60885); test: Rescue of CS-JQ1-induced BRD4 degradation by co-treatment; format: cell-based; details: CS-JQ1 250 nM; BTZ, MLN7243, MLN4924 1 μM, JQ1 10 μM; MCF7 and MDA-MB-231 cells
MDA = test: Cell viability, breast cancer cells MDA; format: cell-based
MCF-7 = test: Cell viability, breast cancer cells MCF-7; format: cell-based
MDA-BR = test: Cell viability, breast cancer cells MDA-BR; format: cell-based
BT474 = test: Cell viability, breast cancer cells BT474; format: cell-based
SJGBM2 = test: Cell viability, pediatric glioma SJGBM2; format: cell-based
DIPG XIII [2] = test: Cell viability, pediatric glioma DIPG XIII; format: cell-based
DIPG VI = test: Cell viability, pediatric glioma DIPG VI; format: cell-based
DIPG IV = test: Cell viability, pediatric glioma DIPG IV; format: cell-based
MES83 [3] = test: Cell viability, adult glioma MES83; format: cell-based
GBM8 = test: Cell viability, adult glioma GBM8; format: cell-based
CT2A (mice) = test: Cell viability, adult glioma CT2A (mice); format: cell-based
MES236 = test: Cell viability, adult glioma MES236; format: cell-based
MGG29 = test: Cell viability, adult glioma MGG29; format: cell-based
PN84 = test: Cell viability, adult glioma PN84; format: cell-based
U87 = test: Cell viability, adult glioma U87; format: cell-based
MGG23 = test: Cell viability, adult glioma MGG23; format: cell-based
MGG6 = test: Cell viability, adult glioma MGG6; format: cell-based
BRD4 [4] = test: CDDO blockade of CS-JQ1-induced BRD4 degradation; format: cell-based; details: MDA and MES83 cells; CDDO 100 nM or 5 μm, celastrol-JQ1 100 nM; CHX 3 μg/ml 1 h, 8 hour treatment
BRD4 [5] = target: T1, BRD4; test: TR-FRET quantification of BRD4 levels after 5 h treatment, MCF7 cells; format: cell-based; details: BRD4 degradation
Experimental: (§1) Mammalian cell culture: MCF7 cells (ATCC) were propagated in RPMI-1640 medium supplemented with 10% FBS, 1% pen-strep, and 1% L-glutamine at 37° C. and 5% CO2. MDA-MB-231 cells (ATCC) were propagated in DMEM medium supplemented with 10% FBS, and 1% pen-strep at 37° C. and 5% CO2.
(§2) TR-FRET measurements: unless otherwise noted, experiments were performed in white, 384-well microtiter plates (Corning 3572) in 30 μL assay volume. […] The 490/10 and 520/10 emission channels were acquired with a 50% mirror and a dichroic 510 mirror, respectively, using independently optimized detector gain settings unless specified otherwise. The TR-FRET ratio was taken as the 520/490 nm intensity ratio on a per-well basis.
(§3) Next, MCF7 and MDA-MB-231 cells were treated for 5 h with varying concentrations of CS-JQ1, followed by BRD4 quantification. […] Western blot analysis on the same samples yielded results that were again in excellent agreement (FIG. 1F-G).

BRD4 [6] = target: T1, BRD4; test: TR-FRET quantification of BRD4 levels after 5 h treatment, MDA-MB-231 cells; format: cell-based; details: BRD4 degradation
Experimental: as §1, §2, §3

BRD4 [7] = test: TR-FRET ligand displacement, target engagement with BRD4; format: binding; details: recombinant BRD4(BD1), BRD4(BD2), endogenous BRD4 in MCF7 cell extracts
Keap1 Kelch domain = Keap1 Kelch domain (Homo sapiens, UniProt Q14145); test: TR-FRET assay with full-length Keap1, Kelch domain; format: binding
Keap1 Kelch domain, sequence (Q14145 whole entry, the tested form may be a part): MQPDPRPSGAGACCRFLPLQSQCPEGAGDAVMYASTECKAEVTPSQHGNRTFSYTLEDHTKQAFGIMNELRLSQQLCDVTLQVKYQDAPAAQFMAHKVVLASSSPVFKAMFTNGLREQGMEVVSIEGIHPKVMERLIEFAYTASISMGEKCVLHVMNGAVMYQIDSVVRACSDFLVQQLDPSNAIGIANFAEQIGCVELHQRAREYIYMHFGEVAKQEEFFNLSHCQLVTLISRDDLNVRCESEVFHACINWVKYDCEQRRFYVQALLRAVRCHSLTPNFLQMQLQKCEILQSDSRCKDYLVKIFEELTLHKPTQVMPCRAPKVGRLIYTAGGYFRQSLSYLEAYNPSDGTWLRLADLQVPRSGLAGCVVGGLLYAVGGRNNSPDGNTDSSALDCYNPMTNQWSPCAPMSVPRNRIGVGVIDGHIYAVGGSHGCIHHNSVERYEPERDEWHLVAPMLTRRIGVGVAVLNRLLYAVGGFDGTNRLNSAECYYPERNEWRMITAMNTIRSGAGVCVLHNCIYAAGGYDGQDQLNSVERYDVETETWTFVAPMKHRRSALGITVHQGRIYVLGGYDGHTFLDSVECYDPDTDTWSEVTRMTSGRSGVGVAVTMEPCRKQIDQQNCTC
Experimental: (§4) FIG. 5 contains a table showing apparent equilibrium dissociation constants for CS and CS-JQ1 toward Keap1-Kelch and Keap1-BTB domains.
(§5) Chemical synthesis: FITC-Ahx-[…]-CONH2 (FITC-KL9) peptide tracer was custom synthesized by Genscript (Piscataway, New Jersey). CDDO-FITC fluorescent tracer was prepared as previously described. Column purifications were performed on a Biotage Isolera 4 Purification System equipped with a 200-400 nm diode array detector. For normal phase flash purifications, Sorbtech Purity Flash Cartridges were used (CFC-52300-012-18 and CFC-52500-025-12). For reverse phase flash purifications, Biotage Sfar Bio C18 Duo 300 A, 20 μm cartridges were used (FSBD-0411-001). […] LC/MS data analysis was performed using Waters Masslynx V4.1 SCN 846 software. Proton and carbon nuclear magnetic resonance (1H and 13C NMR spectra) were recorded on a Bruker Avance III 400 spectrometer using Topspin 3.2 software and data were analyzed using MestreNova (version 12.0.1-20560, Mestrelab Research). Chemical shifts for protons are reported in parts per million (ppm) and are referenced to residual solvent peaks. Data is reported as follows: chemical shift, multiplicity (s=singlet, br s, =broad singlet, d=doublet, t=triplet, q=quartet, p=pentet, m=multiplet), proton coupling constants (J, Hz), and integration. […]

Keap1 BTB domain = Keap1 BTB domain (Homo sapiens, UniProt Q14145); test: TR-FRET ligand displacement assay with full-length Keap1, BTB domain (CDDO-based tracer); format: binding
Keap1 BTB domain, sequence (Q14145 whole entry, the tested form may be a part): as above
Experimental: as §4
as §5, with “Research).” for “Research). Chemical shifts for protons are reported in parts per million (ppm) and are referenced to residual solvent peaks. Data is reported as follows: chemical shift, multiplicity (s=singlet, br s, =broad singlet, d=doublet, t=triplet, q=quartet, p=pentet, m=multiplet), proton coupling constants (J, Hz), and integration.”
CS was discovered and validated as a promising new ligand for the redirection of E3 ligase activity. […] Since the binding affinity of CS and CS-JQ1 for BTB was determined in a ligand displacement assay using a CDDO-based tracer, it was reasonable to assume that CDDO-Me would efficiently displace CS-JQ1. […]

[8] = test system: full-length Keap1 and BRD4(BD1) and BRD4(BD2); test: CS-JQ1-induced ternary complex formation; format: binding; details: wildtype full-length Keap1, isolated BRD4 (BD1) and BRD4 (BD2)
DIPG 50 = test: Cell viability, pediatric glioma DIPG 50; format: cell-based
PHC (mice) = test: Cell viability, pediatric glioma PHC (mice); format: cell-based; details: Mus musculus
PKC (mice) = test: Cell viability, pediatric glioma PKC (mice); format: cell-based; details: Mus musculus
XFM (mice) = test: Cell viability, pediatric glioma XFM (mice); format: cell-based; details: Mus musculus
M005 (mice) = test: Cell viability, adult glioma M005 (mice); format: cell-based; details: Mus musculus
[9] = cited from earlier work
DIPG XIII [10] = test: Cell viability, CS and JQ1 combination, DIPG XIII; format: cell-based
MES83 [11] = test: Cell viability, CS and JQ1 combination, MES83; format: cell-based

| SMILES | Rescue of CS-JQ1-mediated BRD4 degradation by co-treatment (BRD4 [1]) | IC50 (MDA) [nM] | IC50 (MDA-BR) [nM] | IC50 (SJGBM2) [nM] | IC50 (DIPG XIII [2]) | IC50 (DIPG VI) [nM] | IC50 (DIPG IV) [nM] | IC50 (MES83 [3]) [nM] | IC50 (GBM8) [nM] | IC50 (MES236) [nM] | IC50 (MGG29) [nM] | IC50 (PN84) [nM] | IC50 (MGG23) [nM] | IC50 (MGG6) [nM] | IC50 (BT474; Homo sapiens, BT-474) [nM] | IC50 (DIPG 50) [nM] | IC50 (PHC (mice)) [nM] | IC50 (PKC (mice)) [nM] | IC50 (XFM (mice)) [nM] | IC50 (U87; Homo sapiens, U-87 MG) [nM] | further results |
| --- | --- | --- | --- | --- | --- | --- | --- | --- | --- | --- | --- | --- | --- | --- | --- | --- | --- | --- | --- | --- | --- |
| CC(C)C[C@H](NC(=O)[C@H](Cc1ccccc1)NC(=O)c1cnccn1)B(O)O [BTZ] | substantially rescued | – | – | – | – | – | – | – | – | – | – | – | – | – | – | – | – | – | – | – | – |
| Cc1sc2c(c1C)C(c1ccc(Cl)cc1)=NC(CC(=O)NCCCOCCOCCOCCCNC(=O)[C@]13CCC(C)(C)C[C@H]1[C@H]1C(=O)C=C4[C@@]5(C)C=C(C#N)C(=O)C(C)(C)[C@@H]5CC[C@@]4(C)[C@]1(C)CC3)c1nnc(C)n1-2 (stereo partly shown) [CDDO-JQ1] | – | 748 | > 10000 | 635 | 694 nM | 277 | 894 | 1000 | 124 | 404 | 360 | 139 | 1850 | 357 | – | – | – | – | – | – | IC50 (MCF-7): 6600 nM; IC50 (BT474): 1680 nM; IC50 (CT2A (mice)): 747 nM; IC50 (U87): 746 nM |
| CC1(C)CC[C@]2(C(=O)O)CC[C@]3(C)[C@H](C(=O)C=C4[C@@]5(C)C=C(C#N)C(=O)C(C)(C)[C@@H]5CC[C@]43C)[C@@H]2C1 [CDDO] | – | 1220 | > 10000 | 2370 | 1410 nM | 1330 | 1360 | 1350 | 578 | 1280 | 828 | 278 | 2570 | 964 | – | – | – | – | – | – | Blockade of CS-JQ1-induced BRD4 degradation by CDDO pre-treatment (BRD4 [4]): blocks partially; IC50 (MCF-7): > 10000 nM; IC50 (BT474): 4840 nM; IC50 (CT2A (mice)): 2120 nM; IC50 (U87): 3700 nM |
| CC1=C(O)C(=O)C=C2C1=CC=C1[C@@]2(C)CC[C@@]2(C)[C@@H]3C[C@](C)(C(=O)NCCCOCCOCCOCCCNC(=O)CC4N=C(c5ccc(Cl)cc5)c5c(sc(C)c5C)-n5c(C)nnc54)CC[C@]3(C)CC[C@]12C (stereo partly drawn) [CS-JQ1, (2R,4aS,6aS,12bR,14aS,14bR)—N-(1-(4-(4-chlorophenyl)-2,3,9-trimethyl-6H-thieno[3,2-f][1,2,4]triazolo[4,3-a][1,4]diazepin-6-yl)-2-oxo-7,10,13-trioxa-3-azahexadecan-16-yl)-10-hydroxy-2,4a,6a,9,12b,14a-hexamethyl-11-oxo-1,2,3,4,4a,5,6,6a,11,12b,13,14,14a,14b-tetradecahydropicene-2-carboxamide] | – | 119 | 213 | 263 | 39 nM | 83.1 | 819 | 328 | 63.1 | 190 | 90.4 | 79.7 | 447 | 99.3 | 60.9 | 298 | 8.48 | 103 | 38.2 | 266 | Emax (BRD4 [5]): 21%; Emax,5h,MCF7 (BRD4 [5]): 21%; DC50 (BRD4 [5]; n=2): 29 ± 14 nM; Emax (BRD4 [6]): 12%; Emax,5h,MDA-MB-231 (BRD4 [6]): 12%; DC50 (BRD4 [6]; n=2): 16 ± 2 nM; Binding to BRD4 (BRD4 [7]): did not impair binding to BRD4; Binding to Keap1 Kelch domain (Keap1 Kelch domain): lost the ability to bind the Keap1 Kelch domain; Affinity for Keap1 BTB domain (Keap1 BTB domain): slightly improved affinity for the BTB domain; Ternary complex formation between Keap1 and BRD4 domains [8]: able to induce ternary complex formation; IC50 (MCF-7; Homo sapiens, MCF7): 409 nM; IC50 (DIPG XIII [2]; listed as Celastrol-JQ1): 46.5 nM; IC50 (CT2A (mice); Mus musculus): 142 nM; IC50 (PN84; listed as Celastrol-JQ1): 125 nM; IC50 (M005 (mice)): 23.6 nM |
| CC1=C(O)C(=O)C=C2C1=CC=C1[C@@]2(C)CC[C@@]2(C)[C@@H]3C[C@](C)(C(=O)O)CC[C@]3(C)CC[C@]12C [Celastrol, (9β,13α,14β,20α)-3-hydroxy-9,13-dimethyl-2-oxo-24,25,26-Trinoroleana-1(10),3,5,7-tetraen-29-oic acid] | – | 1200 | 1710 | 1190 | 1910 nM and 1800 nM | 1360 | 2960 | 1160 | 715 | 1270 | 1100 | 381 | 1810 | 1230 | 511 | 1600 | 310 | 170 | 276 | 913 | Binding to Keap1 Kelch domain (Keap1 Kelch domain): low micromolar affinity; Affinity for Keap1 BTB domain (Keap1 BTB domain): low micromolar affinity; IC50 (MCF-7; Homo sapiens, MCF7): 3320 nM; IC50 (CT2A (mice); Mus musculus): 605 nM; IC50 (M005 (mice)): 874 nM; pKa [9]: about 4.8 |
| Cc1sc2c(c1C)C(c1ccc(Cl)cc1)=NC(CC(=O)OC(C)(C)C)c1nnc(C)n1-2 (stereo not shown) [JQ-1] | reduced CS-JQ1 degradation efficiency | 6490 | > 10000 | 1580 | > 10000 nM | > 10000 | 1520 | 8120 | – | 3680 | > 10000 | 604 | > 10000 | – | > 10000 | > 10000 | 900 | 786 | > 10000 | 6950 | IC50 (M005 (mice)): 751 nM; IC50 (DIPG XIII [10]): > 10000 nM; IC50 (MES83 [11]): 6380 nM |
| NS(=O)(=O)OC[C@@H]1C[C@@H](n2ccc3c(N[C@H]4CCc5ccccc54)ncnc32)C[C@@H]1O [MLN4924] | substantially rescued | – | – | – | – | – | – | – | – | – | – | – | – | – | – | – | – | – | – | – | – |
| NS(=O)(=O)OC[C@H]1C[C@@H](Nc2ccnc3cc(-c4cccc(SC(F)(F)F)c4)nn23)[C@H](O)[C@@H]1O [MLN7243] | substantially rescued | – | – | – | – | – | – | – | – | – | – | – | – | – | – | – | – | – | – | – | – |
